In patent US6410533B1, “Antibacterial compounds” (Genzyme Corporation, priority 2000, dated 2002):
Converted amounts (≈) assume the structure as drawn. Where two headings read alike, the source gives them in different places.

Columns and labels:
[1] = tested on: Staphylococcus aureus bacteria (ATCC 9604 SV); experiment: IC50 determination, growth inhibition by turbidity at 550 nm; format: cell-based; settings: Staphylococcus aureus ATCC 9604 SV, turbidity at 550 nm after 3-5 h at 37° C.
Description: (§1) Minimal inhibitory concentrations (MICs) for Staphylococcus aureus bacteria (ATCC 9604 SV) were determined by broth microdilution methodology following National Committee for Clinical Laboratory Standards. In the MIC determinations, the compounds were incorporated into Mueller-Hinton broth (Becton Dickinson Microbiology systems, Cockeyville, Md.) at a series of concentrations. After the test organism was grown overnight in TB broth, the broths were adjusted to the turbidity equivalent to 0.05 McFarland standard. The suspensions were diluted twenty-fold into the broth containing the compounds. […] In the IC50 determination, the method was modified to allow the rapid growth of the organisms. The inoculum suspensions were adjusted to 0.1 McFarland standard and then diluted two-fold into the wells containing TB broth and the compounds. After three to five hours incubation at 37° C., the turbidity was measured at 550 nm and inhibitory activity was defined as the concentration of antimicrobial agent that inhibits 50% growth of the organism in the microdilution wells.

[2] = tested on: Staphylococcus aureus bacteria (ATCC 9604 SV); experiment: Minimal inhibitory concentration (MIC), broth microdilution; format: cell-based; settings: 24 h at 37° C.
Description: as §1

[3] = tested on: methicillin-resistant Staphylococcus aureus (ATCC 33591); experiment: In vivo mouse intraperitoneal infection, mortality and % survivors over 7 days; settings: MRSA ATCC 33591 i.p., ICR mice; for In Vivo, single dose (% of mice rescued): single dose 1 h post inoculation; for In Vivo, double dose (% of mice rescued): 1 and 5 h post inoculation
Description: Ten male ICR mice weighing 20 grams were inoculated intraperitoneally with an LD90-100 dose (2-3×10^7 CFU/mouse) of methicillin-resistant Staphylococcus aureus (ATCC 33591) in brain-heart infusion broth containing 5% mucin. Compounds were suspended in a vehicle containing 1% cremophore EL (Sigma) in normal saline and were administered subcutaneously in a volume of 0.4 ml per mouse either 1 hour following bacterial inoculation or 1 and 5 hours post inoculation. Animals receiving two doses of drug were injected subcutaneously in the hindquarter one hour post-innoculation and in the neck area, 5 hours post-innoculation. Deaths occurring during the subsequent 7 days are recorded. Mortality and % survivor endpoints are calculated.

[4] = Staphylococcus aureus ATCC 9604 SV
[5] = ATCC9604, Staphylococcus aureus ATCC 9604 SV, read-out: MIC

SMILES | IC50 [1] [nM] | MIC [2, 4] [µg/mL] | other results
O=C(Nc1cc(C(F)(F)F)cc(C(F)(F)F)c1)Nc1cc(-c2ccncc2)nn1-c1ccc(Br)cc1 [Compound 119] | 163 | 0.855 (≈ 1.5 µM) | 
O=C(Nc1cc(C(F)(F)F)cc(C(F)(F)F)c1)Nc1cc(-c2cccs2)nn1-c1ccc(Br)cc1 [Compound 109] | 155 | <0.863 | In Vivo, single dose (% of mice rescued) ([3]; 2 mg/kg s.c.): 25% @ 2 mg/kg; In Vivo, single dose (% of mice rescued) ([3]; 20 mg/kg s.c.): 25% @ 20 mg/kg
CN(C)Cc1cc(NC(=O)Nc2cc(C(F)(F)F)cc(C(F)(F)F)c2)n(-c2ccc(C(F)(F)F)cc2)n1 [Compound 90] | 4400 | 13.5 (≈ 25 µM) | 
O=C(Nc1cc(Cl)cc(Cl)c1)Nc1cc(-c2cccs2)nn1-c1ccc(Br)cc1 [Compound 108] | 194 | >25.4 | In Vivo, single dose (% of mice rescued) ([3]; 2 mg/kg s.c.): 0% @ 2 mg/kg; In Vivo, single dose (% of mice rescued) ([3]; 20 mg/kg s.c.): 0% @ 20 mg/kg
COCCN(CCOC)Cc1cc(NC(=O)Nc2cc(Cl)cc(Cl)c2)n(-c2ccc(Br)cc2)n1 [Compound 102] | 3520 | 28.6 (≈ 50.1 µM) | In Vivo, single dose (% of mice rescued) ([3]; 2 mg/kg s.c.): 0% @ 2 mg/kg; In Vivo, single dose (% of mice rescued) ([3]; 20 mg/kg s.c.): 25% @ 20 mg/kg
Cc1cc(-c2csc(NC(=O)Nc3cc(C(F)(F)F)cc(C(F)(F)F)c3)n2)ccc1F [Compound 152] | 171 | 1.39 (≈ 3 µM) | In Vivo, single dose (% of mice rescued) ([3]; 2 mg/kg s.c.): 0% @ 2 mg/kg; In Vivo, single dose (% of mice rescued) ([3]; 20 mg/kg s.c.): 0% @ 20 mg/kg
O=C(Nc1cc(C(F)(F)F)cc(C(F)(F)F)c1)Nc1cc(-c2ccco2)nn1-c1ccc(Br)cc1 [Compound 113] | 152 | <0.839 | In Vivo, single dose (% of mice rescued) ([3]; 2 mg/kg s.c.): 25% @ 2 mg/kg; In Vivo, single dose (% of mice rescued) ([3]; 20 mg/kg s.c.): 0% @ 20 mg/kg
O=C(Nc1cc(C(F)(F)F)cc(C(F)(F)F)c1)Nc1ccnn1-c1ccc(Br)cc1 [Compound 92, 1-(3,5-Bis-trifluoromethyl-phenyl)-3-[2-(4-bromo-phenyl)-2H-pyrazol-3-yl]-urea] |  |  | IC50 ([1]; ATCC9604): 209 nM; In Vivo, single dose (% of mice rescued) ([3]; 2 mg/kg s.c.): 0% @ 2 mg/kg; In Vivo, single dose (% of mice rescued) ([3]; 20 mg/kg s.c.): 0% @ 20 mg/kg; MIC [2, 5]: < 0.74 µg/mL
CC(NC(=O)Nc1nc(-c2ccc(Br)cc2)cs1)C(O)c1ccccc1 (stereo not shown) [Compound 183] | 6380 | 10.8 (≈ 25 µM) | 
O=C(Nc1cc(Cl)cc(Cl)c1)Nc1cc(-c2ccncc2)nn1-c1ccc(Br)cc1 [Compound 118] | 239 | 0.755 (≈ 1.5 µM) | 
O=C(Nc1cc(Cl)cc(Cl)c1)Nc1cc(-c2ccccc2)nn1-c1ccc(Br)cc1 [Compound 107] | 121 | 6.28 (≈ 12.5 µM) | In Vivo, single dose (% of mice rescued) ([3]; 2 mg/kg s.c.): 25% @ 2 mg/kg; In Vivo, single dose (% of mice rescued) ([3]; 20 mg/kg s.c.): 12.5% @ 20 mg/kg; In Vivo, single dose (% of mice rescued) ([3]; 40 mg/kg s.c.): 10% @ 40 mg/kg; In Vivo, single dose (% of mice rescued) ([3]; 80 mg/kg s.c.): 10% @ 80 mg/kg; In Vivo, single dose (% of mice rescued) ([3]; 160 mg/kg s.c.): 5% @ 160 mg/kg; In Vivo, double dose (% of mice rescued) ([3]; 2 × 2 mg/kg s.c.): 0% @ 2 × 2 mg/kg; In Vivo, double dose (% of mice rescued) ([3]; 2 × 20 mg/kg s.c.): 17% @ 2 × 20 mg/kg
O=C(Nc1cc(C(F)(F)F)cc(C(F)(F)F)c1)Nc1c(Br)cnn1-c1ccc(Br)cc1 [Compound 97, 1-(3,5-Bis-trifluoromethyl-phenyl)-3-[4-bromo-2-(4-bromo-phenyl)-2H-pyrazol-3-yl]-urea] |  |  | IC50 ([1]; ATCC9604): 107 nM; MIC [2, 5]: > 29.3 µg/mL
C=CCCc1csc(NC(=O)Nc2cc(C(F)(F)F)cc(C(F)(F)F)c2)n1 [Compound 126] | 612 | 10.2 (≈ 24.9 µM) | 
O=C(Nc1ccc(SC(F)(F)F)cc1)Nc1nc(-c2ccc(F)c(F)c2)cs1 [Compound 161] | 134 | <0.647 | 
O=C(Nc1cc(C(F)(F)F)cc(C(F)(F)F)c1)Nc1c2c(nn1-c1ccc(Br)cc1)CCCC2 [Compound 106] | 459 | >27.4 | 
O=C(Nc1cc(C(F)(F)F)cc(C(F)(F)F)c1)Nc1nc(-c2ccc(CO)cc2)cs1 [Compound 145] | 3740 | >23.1 | 
O=C(Nc1nc(-c2ccc(Cl)cc2)cs1)Nc1cc(Cl)c(Cl)cc1Cl [Compound 170] | 910 | >21.7 | 
Cc1cc(-c2csc(NC(=O)Nc3ccc(F)c(C(F)(F)F)c3)n2)ccc1F [Compound 169] | 661 | >20.7 | 
O=C(Nc1cc(C(F)(F)F)cc(C(F)(F)F)c1)Nc1nc(CCc2ccccc2)cs1 [Compound 131] | 367 | 23.4 (≈ 50.9 µM) | 
O=C(Nc1cc(C(F)(F)F)cc(C(F)(F)F)c1)Nc1nc(-c2ccc(OC(F)F)cc2)cs1 [Compound 142] | 235 | 6.22 (≈ 12.5 µM) | 
O=C(Nc1cc(C(F)(F)F)cc(C(F)(F)F)c1)Nc1nc(-c2ccc(C(F)(F)F)cc2)cs1 [Compound 143] | 129 | 1.40 (≈ 2.8 µM) | 

SMILES | IC50 [1] [nM] | MIC [2, 4] [µg/mL] | other results
O=C(Nc1ccc(Cl)c(C(F)(F)F)c1)Nc1cc(-c2ccccc2)nn1-c1ccc(C(F)(F)F)cc1 [Compound 75] | 96 | <0.787 | 
CCOC(=O)C(=O)c1csc(NC(=O)Nc2cc(C(F)(F)F)cc(C(F)(F)F)c2)n1 [Compound 129] | 944 | 11.4 (≈ 25 µM) | 
O=C(Nc1cc(C(F)(F)F)cc(C(F)(F)F)c1)Nc1nc(-c2cc(CO)no2)cs1 [Compound 154] | 20100 | >22.6 | 
O=C(Nc1ccc(OC(F)F)cc1)Nc1nc(-c2ccc(F)c(F)c2)cs1 [Compound 160] | 461 | 1.19 (≈ 2.99 µM) | 
Cc1cnc(NC(=O)Nc2cc(C(F)(F)F)cc(C(F)(F)F)c2)s1 [Compound 122] | 2720 | >18.5 | 
O=C(Nc1cc(C(F)(F)F)cc(C(F)(F)F)c1)Nc1cc(Cc2ccccc2)nn1-c1ccc(C(F)(F)F)cc1 [Compound 74] | 127 | 3.43 (≈ 5.99 µM) | 
O=C(Nc1cc(C(F)(F)F)cc(C(F)(F)F)c1)Nc1cc(-c2ccc(CN3CCOCC3)cc2)nn1-c1ccc(C(F)(F)F)cc1 [Compound 88] | 1480 | >32.9 | 
CCOC(=O)c1nc(NC(=O)Nc2cc(C(F)(F)F)cc(C(F)(F)F)c2)sc1C [Compound 128] | 510 |  | In Vivo, single dose (% of mice rescued) ([3]; 2 mg/kg s.c.): 0% @ 2 mg/kg; In Vivo, single dose (% of mice rescued) ([3]; 20 mg/kg s.c.): 0% @ 20 mg/kg
O=C(Nc1cc(C(F)(F)F)cc(C(F)(F)F)c1)Nc1nc2ccccc2s1 [Compound 156] | 295 | 1.22 (≈ 3.01 µM) | 
Cc1nc(NC(=O)Nc2cc(C(F)(F)F)cc(C(F)(F)F)c2)sc1C [Compound 123] | 520 | 1.15 (≈ 3 µM) | 
O=C(Nc1cc(C(F)(F)F)cc(C(F)(F)F)c1)Nc1nc(-c2ccc(CCO)cc2)cs1 [Compound 146] | 1610 | 2.71 (≈ 5.7 µM) | 
O=C(Nc1cc(Cl)cc(Cl)c1)Nc1c2c(nn1-c1ccc(Br)cc1)CCCC2 [Compound 105] | 3210 | >24.0 | 
O=C(Nc1ccc(F)c(C(F)(F)F)c1)Nc1nc(-c2cccc(F)c2)cs1 [Compound 165] | 364 | 2.40 (≈ 6.01 µM) | 
Cc1cc(-c2cc(NC(=O)Nc3cc(C(F)(F)F)cc(C(F)(F)F)c3)n(-c3ccc(Br)cc3)n2)no1 [Compound 115] | 402 | 1.72 (≈ 3 µM) | 
O=C(Nc1cc(C(F)(F)F)cc(C(F)(F)F)c1)Nc1nc(-c2cccc(F)c2)cs1 [Compound 135] | 107 | 1.35 (≈ 3 µM) | 
O=C(O)Cc1csc(NC(=O)Nc2cc(C(F)(F)F)cc(C(F)(F)F)c2)n1 [Compound 127] | 29300 | >20.7 | 
O=C(Nc1cc(C(F)(F)F)cc(C(F)(F)F)c1)Nc1nc(-c2ccc(F)cc2)cs1 [Compound 139] | 100 |  | In Vivo, single dose (% of mice rescued) ([3]; 2 mg/kg s.c.): 0% @ 2 mg/kg; In Vivo, single dose (% of mice rescued) ([3]; 20 mg/kg s.c.): 0% @ 20 mg/kg
O=C(Nc1cc(C(F)(F)F)cc(C(F)(F)F)c1)Nc1nc(Cc2ccccc2)cs1 [Compound 130] | 275 | 1.34 (≈ 3.01 µM) | 
O=C(NCc1ccc(Cl)c(Cl)c1)Nc1nc(-c2ccc(F)c(F)c2)cs1 [Compound 182] | 2850 | 5.18 (≈ 12.5 µM) | 
O=C(Nc1cc(C(F)(F)F)cc(C(F)(F)F)c1)Nc1nc(-c2cccs2)cs1 [Compound 155] | 259 | 1.31 (≈ 3 µM) | 
